Experimental data as given in US4997849A, “Microbial transformation of simvastatin” (Merck & Co., Inc., priority 1989, dated 1991).

Key:
[1] = biological target: T1, HMG-CoA reductase (Rattus norvegicus, UniProt P51639); test: intrinsic HMG-CoA reductase inhibition activity, in vitro protocol of J. Med. Chem., 1985, 28, page 347; format: biochemical; details: potassium salt
T1 construct: from tissue
T1 sequence (P51639 1-887): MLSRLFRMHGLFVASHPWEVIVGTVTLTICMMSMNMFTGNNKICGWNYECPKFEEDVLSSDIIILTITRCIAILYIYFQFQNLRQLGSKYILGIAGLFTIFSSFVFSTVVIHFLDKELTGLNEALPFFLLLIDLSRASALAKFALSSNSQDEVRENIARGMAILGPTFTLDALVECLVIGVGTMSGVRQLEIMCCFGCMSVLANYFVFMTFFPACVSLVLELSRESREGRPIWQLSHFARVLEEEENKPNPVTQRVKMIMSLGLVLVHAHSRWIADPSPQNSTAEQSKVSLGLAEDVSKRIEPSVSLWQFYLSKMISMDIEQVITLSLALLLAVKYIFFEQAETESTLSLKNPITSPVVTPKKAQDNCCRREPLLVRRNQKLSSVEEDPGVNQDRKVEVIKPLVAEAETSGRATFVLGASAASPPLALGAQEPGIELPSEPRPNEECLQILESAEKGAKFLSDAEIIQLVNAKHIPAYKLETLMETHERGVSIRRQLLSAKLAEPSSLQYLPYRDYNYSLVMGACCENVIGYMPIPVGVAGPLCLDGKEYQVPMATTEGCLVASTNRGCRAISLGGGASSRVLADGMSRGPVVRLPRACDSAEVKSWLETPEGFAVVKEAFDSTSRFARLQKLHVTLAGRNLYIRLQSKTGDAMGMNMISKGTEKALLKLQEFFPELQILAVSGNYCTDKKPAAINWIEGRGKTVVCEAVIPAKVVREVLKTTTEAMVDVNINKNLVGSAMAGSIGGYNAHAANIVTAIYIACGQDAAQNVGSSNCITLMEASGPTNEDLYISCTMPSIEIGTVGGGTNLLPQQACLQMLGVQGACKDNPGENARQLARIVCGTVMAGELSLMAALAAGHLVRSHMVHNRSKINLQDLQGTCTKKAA
Description: The intrinsic HMG-CoA reductase inhibition activity of the claimed compounds is measured in the in vitro protocol described in J. Med. Chem., 1985, 28, page 347.

[2] = reversion of free dihydroxy acid to parent lactone on standing; format: physicochemical; details: on standing at room temperature
Description: The sodium salt of the compound II from Example 8 is dissolved in 2 ml of ethanol-water (1:1; v:v) and added to 10 ml of 0.1N hydrochloric acid from which the dihydroxy acid is extracted with ethyl acetate. The organic extract is washed once with water, dried (Na2 SO4), and evaporated in vacuo with a bath temperature not exceeding 30° C.

[3] = biological target: T2, HMG-CoA reductase (Homo sapiens, UniProt P04035); details: relative to lovastatin; cited from earlier work
T2 sequence (P04035 1-888): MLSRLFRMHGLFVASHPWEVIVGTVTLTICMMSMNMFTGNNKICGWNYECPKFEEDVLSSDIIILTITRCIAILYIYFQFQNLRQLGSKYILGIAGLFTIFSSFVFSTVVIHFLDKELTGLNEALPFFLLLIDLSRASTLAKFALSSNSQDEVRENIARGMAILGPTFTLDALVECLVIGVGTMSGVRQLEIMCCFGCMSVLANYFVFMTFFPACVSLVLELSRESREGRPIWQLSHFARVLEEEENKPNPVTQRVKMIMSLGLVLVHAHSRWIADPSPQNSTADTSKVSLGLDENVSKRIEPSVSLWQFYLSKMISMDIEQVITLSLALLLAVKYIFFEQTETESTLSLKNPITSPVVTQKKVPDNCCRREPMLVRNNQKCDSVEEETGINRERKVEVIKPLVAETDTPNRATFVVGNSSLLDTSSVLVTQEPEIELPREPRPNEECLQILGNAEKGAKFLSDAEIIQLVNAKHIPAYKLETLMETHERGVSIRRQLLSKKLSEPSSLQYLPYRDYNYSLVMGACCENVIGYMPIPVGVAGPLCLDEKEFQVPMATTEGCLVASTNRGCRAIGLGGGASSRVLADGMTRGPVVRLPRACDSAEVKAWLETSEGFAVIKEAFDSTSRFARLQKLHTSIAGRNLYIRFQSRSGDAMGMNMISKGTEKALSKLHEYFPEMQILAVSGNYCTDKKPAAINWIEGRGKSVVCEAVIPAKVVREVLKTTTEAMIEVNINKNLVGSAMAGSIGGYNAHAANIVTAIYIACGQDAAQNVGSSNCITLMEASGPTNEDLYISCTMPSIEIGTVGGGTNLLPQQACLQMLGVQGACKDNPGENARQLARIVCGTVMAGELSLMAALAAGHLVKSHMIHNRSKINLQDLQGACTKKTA

## CC1C=Cc2cc(CO)ccc2C1CC[C@@H](O)C[C@@H](O)CC(=O)O (stereo partly drawn)
[1]
  IC50: 897 nM

## CC1C=Cc2cc(CO)ccc2C1CC[C@@H](O)C[C@@H](O)CC(=O)O (stereo partly drawn) [dihydroxy acid derivative]
[2]
  reversion to the corresponding parent lactone: slowly reverts to the corresponding parent lactone on standing at room temperature

## CCC(C)(C)C(=O)O[C@H]1C[C@@H](C)C=C2C=C[C@H](C)[C@H](CC[C@@H]3C[C@@H](O)CC(=O)O3)[C@H]21 [simvastatin]
[3]
  HMG-CoA reductase inhibitor potency compared with lovastatin: even more potent HMG-CoA reductase inhibitor than lovastatin
